Tests used:
Escherichia coli = settings: on Escherichia coli; cited from earlier work
STKM cells = assay: TUNEL assay; format: cell-based; settings: 2 ml of BA of 2.5 mg/ml, 48 hrs, FIG. 7
Source text: (§1) The DNA Laddering assay, the TUNEL assay and the Caspase assay as described in the examples below are general methods for determining whether a cell arrives at death through an apoptosis route or not. For the DNA Laddering assay, see Shin Apoptosis Jikken-ho (edited by K. Tsujimoto, S. Tone, T. Yamada, 59-66, Yodosya, 1999). For the TUNEL assay, see Shin Apoptosis Jikken-ho (edited by K. Tsujimoto, S. Tone, T. Yamada, 67-74, Yodosya, 1999). For the Caspase assay, see Shin Apoptosis Jikken-ho (edited by K. Tsujimoto, S. Tone, T. Yamada, 198-200, Yodosya, 1999).
(§2) For a cell group capable of being guided to the cell mortality, it was determined that through which route, apoptosis or necrosis, the cell arrived at death. Namely, BA was added to the cell at a certain concentration or more necessary to guide to the cell mortality, and the cell was collected after confirmation of the change in shape. Then, the DNA Laddering assay with gel electrophoresis to investigate the DNA fragmentation and the TUNEL assay with the cell dyeing were carried out.
2 ml of BA of 2.5 mg/ml was added to 1.5×10^5 cells (STKM) on a slide glass, followed by incubating at 37° C. for 48 hrs and fixing with 1% paraformaldehyde in PBS at a room temperature for 10 min. For a control, the equal amount of physiological saline was added. […]

[1] = tested on: stomach cancer cell line (STKM); assay: cell adhesiveness test by the calorimetric assay; format: cell-based; settings: 37° C. for 48 hrs, OD 600 nm, FIG. 1
Source text: The calorimetric assay as described in the examples below can be employed for assaying the adhesiveness of a cell, and the thymidine incorporate assay can be employed for assaying the mortality of a cell. These two assays are general methods for determining the behavior of a tumor cell. For the colorimetric assay, see Enhancer sequences of DF3 gene regulate expression of the herpes simplex virus thymidine kinase gene and confer sensitivity of human breast cancer cell to ganciclovir: Manome Y, Abe M, Hagen F. M, Fine A. H, and Kufe W. D, Cancer Research 54:5408-5413, 1994. For the thymidine incorporate assay, see Meneki Jikken Sousa-ho II (edited by S. Uda, S. Konda, Y. Honsho, T, Hamaoka, 773-774, Nanko-do, 1995).
(§3) To 1×10^6 cells of a stomach cancer cell line (STKM), BA was added by such proportional concentrations as 1, 1.5, 2.0, 2.5 and 5 mg/ml. An equal amount of the physiological saline was added to prepare a control sample. All the samples were incubated at 37° C. for 48 hrs. The shape of the cell was studied through an inverted microscope. The adhesiveness and the mortality of the cell were measured by the calorimetric assay and the thymidine incorporate assay.
(1) The Cell Adhesiveness Test by the Calorimetric Assay:
100% gulutalaldehyde was added to each of samples by a ¼ the medium amount (250 μl), then left to stand at a room temperature for 15 min. […]

[2] = tested on: umbilical cord cell line (Huvec); assay: colorimetric assay on a normal cell; format: cell-based; settings: FIG. 10
Procedure: (§4) 100% gulutalaldehyde was added to each of samples by a ¼ the medium amount (250 μl), then left to stand at a room temperature for 15 min. After washing, 250 μl of 0.05% Methylene Blue in PBS was added and then left to stand at a room temperature for 15 min. After washing, 250 μl of 0.33N HCl was added, followed by leaving to stand at a room temperature for 15 min and measuring the OD (600 nm).
(§5) In order to confirm that the BA administration effects specifically a cancer cell to arrive at death, the colorimetric assay was carried out on a normal cell, that is, an umbilical cord cell line (Huvec) and a lung cell line (WI38), in the same way as in Example 1. The stomach cancer cell line (STKM) was used for a control.

lung cell line (WI38) = assay: colorimetric assay on a normal cell; format: cell-based; settings: FIG. 10
Procedure: as §4, §5

Caspase-8 = Caspase-8 activity assay; format: cell-based; settings: 2 ml of BA of 2.5 mg/ml, 48 hrs
Source text: as §1
(§6) To 1.5×10^6 cells, 2 ml of BA of 2.5 mg/ml for a test sample, the equal amount of physiological saline for a negative control sample, and Arac 1×10^−5M (Kirosaito, Nippon Shinyaku) for a positive control sample were added respectively, each of which was followed by incubating at 37° C. for 48 hrs to recover the cells. Then, the CPP32/Caspase-3, -8 Colorimetric Protease Assay kit (MBL Co.) was applied to the samples. The application was briefly as follows: • 1. […]

[3] = tested on: thyroid gland cancer cell line SW1736; assay: tests as in Examples 1, 2 and 3; format: cell-based
Procedure: (§7) The tests were carried out on a breast cancer cell line (MCF-7, BSMZ), a large bowel cancer cell line (DLD, LOVO), a thyroid gland cancer cell line (SW1736), and a pancreas cancer cell line (PA-1) in the same ways as in Examples 1, 2, and 3. As the result, the cell mortality began with about 1.5 mg/ml of BA to increase in proportion to the BA concentration, same as adhesiveness thereof.

[4] = tested on: pancreas cancer cell line PA-1; assay: tests as in Examples 1, 2 and 3; format: cell-based
Procedure: as §7

[5] = tested on: large bowel cancer cell line LOVO; assay: tests as in Examples 1, 2 and 3; format: cell-based
Procedure: as §7

[6] = tested on: breast cancer cell line BSMZ; assay: tests as in Examples 1, 2 and 3; format: cell-based
Procedure: as §7

[7] = tested on: breast cancer cell line MCF-7; assay: tests as in Examples 1, 2 and 3; format: cell-based
Procedure: as §7

[8] = tested on: large bowel cancer cell line DLD; assay: tests as in Examples 1, 2 and 3; format: cell-based
Procedure: as §7

[9] = in body; cited from earlier work
Caspase-3 = Caspase-3 activity assay; format: cell-based; settings: 2 ml of BA of 2.5 mg/ml
Source text: as §1, §6

[10] = tested on: stomach cancer cell line (STKM) tumor; assay: antitumor effect on STKM tumor in nude mouse in vivo
Procedure: 1×10^8 cells of a stomach cancer cell line (STKM) were subcutaneously injected in the back of a nude mouse. When a tumor grew to have a diameter of 5 mm or more after 8 weeks, BA was administrated to the tumor or around the tumor by 4 mg/0.5 ml twice a week for 4 weeks. For a control, 0.5 ml of physiological saline was locally injected to the tumor. The tumor diameter was measured. The tumor tissue was taken out and subjected to the H-E dyeing to observe with a microscope.
A stomach cancer cell line (STKM) was implanted in a living body. When a tumor grew to have a diameter of 5 mm or more, BA was administrated by 4 mg/0.5 ml twice a week for 4 weeks. […] The tumor diameter decreased to the ½ or less after the 32 mg administration (4 weeks).
FIGS. 4 and 5 show the images obtained by extracting the tumor after 4 weeks of administration, fixing with 10% formalin, slicing to 3 μm pieces and H-E dyeing. […] The above result confirms that the stomach cancer cell arrived at death in vivo.

[11] = tested on: STKM (a stomach cancer cell line); assay: DNA Laddering assay; format: cell-based; settings: 2 ml of BA of 2.5 mg/ml, 48 hrs, FIG. 6
Source text: as §1, §2
2 ml of BA of 2.5 mg/ml was added to 1.5×10^6 cells (STKM) followed by incubating at 37° C. for 48 hrs to collect the cells. The collected cells were centrifuged and added in 100 μl of lysis buffer (10 mM EDTA, 50 mM Tris-HCl, pH 8.0, 0.5% SDS, 0.5 mg/ml Proteinase K), followed by incubating at […] for 3 hrs. […]

Sarmonella typhii = settings: on Sarmonella typhii; cited from earlier work
Staphylococcus aureus = settings: on Staphylococcus aureus; cited from earlier work
[12] = tested on: stomach cancer cell line (STKM); assay: cell shape by inverted microscope in vitro; format: cell-based; settings: BA 2.5 mg/ml, 37° C. for 48 hrs, FIG. 3
Procedure: as §3
One ml of BA of 2.5 mg/ml was added to 1×10^6 cells followed by incubating at 37° C. for 48 hrs to get the image as shown in FIG. 3. The equal amount of physiological saline was similarly added, followed by incubating in the same way to get the control. […] The nucleus also got remarkably blackened. The above result confirms that a stomach cancer cell arrived at death in vitro.

Structure (SMILES): OCc1ccccc1 [BA, Benzyl alcohol]
- phenol coefficient (Escherichia coli): 0.6
- Digoxigenin dyeing in the nucleus (TUNEL) (STKM cells): no Digoxigenin dyeing image in the nucleus
- BA concentration at which cell adhesiveness begins to decrease [1]: about 1.5 mg/ml
- cell death effect compared to STKM [2]: lower effect compared to the STKM
- resistance to BA compared with Huvec (lung cell line (WI38)): more resistant to BA than the Huvec
- cell death effect compared to STKM (lung cell line (WI38); colorimetric assay): lower effect compared to the STKM
- Caspase-8 activity compared with positive control (Arac) (Caspase-8; FIG. 9): significantly lower than that of the positive control
- Caspase activity compared with negative control (physiological saline) (Caspase-8; FIGS. 8, 9): almost equal to that of the negative control
- BA concentration at which cell mortality begins to increase (same as adhesiveness) [3]: about 1.5 mg/ml
- route of cell death [3]: did not arrive at death through an apoptosis route, but through a necrosis one
- BA concentration at which cell mortality begins to increase (same as adhesiveness) [4]: about 1.5 mg/ml
- route of cell death [4]: did not arrive at death through an apoptosis route, but through a necrosis one
- BA concentration at which cell mortality begins to increase (same as adhesiveness) [5]: about 1.5 mg/ml
- route of cell death [5]: did not arrive at death through an apoptosis route, but through a necrosis one
- BA concentration at which cell mortality begins to increase (same as adhesiveness) [6]: about 1.5 mg/ml
- route of cell death [6]: did not arrive at death through an apoptosis route, but through a necrosis one
- BA concentration at which cell mortality begins to increase (same as adhesiveness) [7]: about 1.5 mg/ml
- route of cell death [7]: did not arrive at death through an apoptosis route, but through a necrosis one
- BA concentration at which cell mortality begins to increase (same as adhesiveness) [8]: about 1.5 mg/ml
- route of cell death [8]: did not arrive at death through an apoptosis route, but through a necrosis one
- metabolism and excretion [9]: converted to benzoic acid in body and excreted as hippuric acid
- Caspase-3 activity (Caspase-3; 37° C. for 48 hrs, FIG. 8): 45.4 RFI/well/Hr
- Caspase-3 activity compared with positive control (Arac) (Caspase-3; 48 hrs, p<0.001): significantly lower than that of the positive control
- tumor diameter compared with the control ([10]; nude mouse, 4 mg/0.5 ml twice a week to or around the tumor, 16 mg administration (2 weeks)): contracted in diameter compared with the control
- tumor diameter decrease ([10]; nude mouse, 4 mg/0.5 ml twice a week to or around the tumor, after the 32 mg administration (4 weeks)): ½
- H-E dyed tumor tissue image ([10]; tumor extracted after 4 weeks of administration, FIG. 5): cells were scattered sparsely with the swollen cytoplasm, appearance of the inclusion bodies and contraction of the nucleus
- DNA laddering [11]: No laddering was recognized
- phenol coefficient (Sarmonella typhii): 0.4
- phenol coefficient (Staphylococcus aureus): 0.5
- cell shape [12]: cell shape changed from a spindle to a circle and got swollen

Source: patent US20050075315A1, “Antitumor agent” (FUSO PHARMACEUTICAL INDUSTRIES, LTD, priority 2002, published 2005)
